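The compound was tested at five concentrations on cells cultured in 96-well plates, with a 48-hour exposure period. GI50 is the concentration that inhibits growth by half.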 The source made the active and inactive calls. Rule as the data show it: active = GI50 up to about 1.1 µM and inactive = higher.
Legend:
Assay in all cases: DTP human tumour cell line panel, 48 h
SK-MEL-28 = system: SK-MEL-28
SN12C = system: SN12C
LXFL 529 = system: LXFL 529
HCC 2998 = system: HCC 2998
SR = system: SR
NCI-H226 = system: NCI-H226
SNB-78 = system: SNB-78
SK-OV-3 = system: SK-OV-3
HL-60 = system: HL-60
HCT-15 = system: HCT-15
SNB-75 = system: SNB-75
NCI-H460 = system: NCI-H460
786-0 = system: 786-0
TK-10 = system: TK-10
DMS-273 = system: DMS-273
SW-620 = system: SW-620
SK-MEL-2 = system: SK-MEL-2
A498 = system: A498
RXF 393 = system: RXF 393
CCRF-CEM = system: CCRF-CEM
UO-31 = system: UO-31
OVCAR-8 = system: OVCAR-8
KM12 = system: KM12
UACC-257 = system: UACC-257
DMS-114 = system: DMS-114
ACHN = system: ACHN
SF-539 = system: SF-539
COLO 205 = system: COLO 205
DLD-1 = system: DLD-1
SF-268 = system: SF-268
CAKI-1 = system: CAKI-1
K562 = system: K562
SNB-19 = system: SNB-19
SK-MEL-5 = system: SK-MEL-5
HCT-116 = system: HCT-116
Malme-3M = system: Malme-3M
KM-20L2 = system: KM-20L2
RXF 631 = system: RXF 631
HOP-62 = system: HOP-62
U-251 = system: U-251
NCI-H522 = system: NCI-H522
UACC-62 = system: UACC-62
HOP-18 = system: HOP-18
OVCAR-4 = system: OVCAR-4
M14 = system: M14
RPMI-8226 = system: RPMI-8226
M19-MEL = system: M19-MEL
OVCAR-3 = system: OVCAR-3
IGROV-1 = system: IGROV-1
MOLT-4 = system: MOLT-4

Measured: GI50

COC(=O)c1sc(=NC(=S)N2CCCCC2)sc1C(=O)OC
> 100 µM: HCT-15
active: NCI-H522 0.569 µM
inactive: SK-MEL-28 > 100 µM | SN12C > 100 µM | LXFL 529 > 100 µM | HCC 2998 > 100 µM | SR 22.9 µM | NCI-H226 > 100 µM | SNB-78 > 100 µM | SK-OV-3 > 100 µM | HL-60 > 100 µM | SNB-75 > 100 µM | NCI-H460 6.38 µM | 786-0 > 100 µM | TK-10 > 100 µM | DMS-273 18.2 µM | SW-620 > 100 µM | SK-MEL-2 > 100 µM | A498 > 100 µM | RXF 393 > 100 µM | CCRF-CEM 32.7 µM | UO-31 98.4 µM | OVCAR-8 > 100 µM | KM12 91.4 µM | UACC-257 > 100 µM | DMS-114 62.7 µM | ACHN > 100 µM | SF-539 > 100 µM | COLO 205 63 µM | DLD-1 > 100 µM | SF-268 > 100 µM | CAKI-1 > 100 µM | K562 71.6 µM | SNB-19 > 100 µM | SK-MEL-5 80.9 µM | HCT-116 > 100 µM | Malme-3M > 100 µM | KM-20L2 > 100 µM | RXF 631 62.7 µM | HOP-62 > 100 µM | U-251 32.4 µM | UACC-62 > 100 µM | HOP-18 > 100 µM | OVCAR-4 > 100 µM | M14 > 100 µM | RPMI-8226 > 100 µM | M19-MEL 5.69 µM | OVCAR-3 3.01 µM | IGROV-1 > 100 µM | MOLT-4 > 100 µM
